Measurements: article PMC12266748, “A Xanthine Derivative With Novel Heat Shock Protein 90‐Alpha Inhibitory and Senolytic Properties” (Aging Cell, 2025)
Entries after “also recorded” stand apart in the source; their conditions may differ.

How the values were obtained:
[1] = Phase I stability in human liver microsomes; format: in vitro ADME; settings: 1 µM, 0.5 mg/mL microsomes
Description: (§1) APHAD S.r.l (Buccinasco, MI, Italy) performed all evaluations. Detailed protocols are reported in the extended methods section.
Phase I stability in human and mouse liver microsomes. The metabolic stability of K4 and K5 was evaluated after incubation with mouse and human liver microsomes. Briefly, the 2 compounds were dissolved in DMSO and pre-incubated, at the final concentration of 1µM, for 10 min at 37°C in potassium phosphate buffer 50 mM, pH 7.4, 3 mM MgCl2, with mouse and human liver microsomes (Sigma) at the final concentration of 0.5 mg/mL. After the pre-incubation period, reactions were started by adding the cofactors mixture (NADP, Glc6P, Glc6P-DH in 2% Sodium bicarbonate); samples were taken at time 0, 10, 20, 30, and 60 min, and added to ACN with Verapamil 0.1 µM as Internal Standard (IS) to stop the reaction. After centrifugation, the supernatants were analyzed using LC-MS/MS. A control sample without cofactors was added to check the stability of test compounds in the matrix after 60 min. 7-Ethoxycoumarin (7-EC) and propranolol were added as positive reference standards. Samples were analyzed on Acquity UPLC (Waters) coupled with an API 3200 Triple Quadrupole ABSciex. […] The percent of the area of the test compound remaining at the various incubation times was calculated based on the area of the compound at time 0 min. […]

[2] = target: T1, HSP90α (Homo sapiens, UniProt P07900); test: Cellular thermal shift assay (CETSA) on cellular lysates, HSP90α; settings: 46°C, compound 0.5 mM
Description: (§2) Cellular Thermal Shift Assay (CETSA). […] Briefly, the cellular extract was lysed in RIPA buffer (10 mM Tris-HCl pH 7.4, 250 mM NaCl, 1% NP40/IGEPAL, 1% DOC, 0.01% SDS, 0.01% Glycerol, supplemented with protease/phosphatase inhibitor, PI/PhI mix and 2 mM DTT) and protein concentration was determined by a BCA kit (Pierce, Life Technologies, TFS, Waltham, MA, USA). Samples were homogenized by 3 cycles of freeze-thawing using liquid nitrogen and centrifuged at 13000 rpm at 4 °C for 30 min to separate the soluble fraction from the debris.
(§3) Following the supplier's recommendations, samples were loaded into the proper cartridge (12- 230 kDa Wes/Jess Separation Modules, ProteinSimple, Biotechne, Minneapolis, MN, USA). HSP90α (1:50, MsMAb, Abcam), HSP90β (1:50, RbMAb, Abcam), GRP94 (1:50, RbMAb, Abcam), TRAP1 (1:50, MsMAb, Abcam), α-Tubulin (1:500, MsMAb, Abcam), and β-Actin (1:500, RbMAb, Abcam) were used as primary antibodies. Secondary antibodies were Anti-Mouse Secondary HRP and Anti-Rabbit Secondary HRP (ProteinSimple, Biotechne, Minneapolis, MN, USA).

[3] = tested on: IMR90 cells; test: In vitro screening of the 14 in silico-selected compounds, surviving cell count, proliferating vs senescent IMR90; format: cell-based, Homo sapiens; settings: 48 h; for effect on non-senescent IMR90 cells: PD15-PD17, 1 μM; for senolytic activity on senescent IMR90 cells: PD19-PD21, 1 μM
Description: IMR90 and WI38 lung fibroblasts were purchased from ECACC‐Merck. Human bone marrow (BM)‐derived mesenchymal stromal cells (MSCs) were purchased from Lonza. Human umbilical vein endothelial cells (HUVECs) are primary cells obtained from a pool of donors purchased from Clonetics (Lonza). Murine ear fibroblasts (MearFs) were obtained from C57BL/6J mice maintained in the INRCA “Specific Pathogen Free” (SPF) animal facility. MCF7 breast cancer cells were purchased from ATCC. For dose–response curves, IMR90 and WI38 were induced to senescence through replicative passages; MSCs, HUVECs, and MearFs senescence was induced with Doxorubicin; MCF7 senescence was induced with 4‐Hydroxytamoxifen (Lee et al. [2014]). The EC50 was calculated using GraphPad Prism 10 software. All treatment specifications are reported in the extended section.
Cell culture and treatment. IMR90 cells (Homo sapiens, fetal lung, fibroblast) and WI38 cells (Homo sapiens, fetal lung, fibroblast) were purchased from ECACC-Merck (Merck, Darmstadt, Germany) and cultured in MEM medium (Euroclone, Milano, Italy) supplemented with 1% L-Glutamine (Euroclone, Milano, Italy), 1% Penicillin-Streptomycin (Euroclone, Milano, Italy), and 10% Fetal Bovine Serum (FBS, Euroclone, Milano, Italy), at 37°C, 5% CO2. IMR90 cells with a population doubling (PD) from PD15 to PD23 were used; cells were considered incrementally senescent from passage PD19 to passage PD23. WI38 cells were used from PD26 to PD53. Cells were considered incrementally senescent from passage PD49 to passage PD53. For the compounds in vitro screening, IMR90 cells with passages from PD15 to PD23 were tested at increasing concentrations of 0.5 μM, 1 μM, 10 μM, and 25 μM over 24 and 48 h to evaluate the compounds' efficacy and cytotoxicity compared to the Vehicle (DMSO ≤ 0.1%). Cells were counted manually, in triplicate, using Trypan blue reagent (Euroclone) and disposable Bürker chambers. […] K5 dose-response proliferation curves were performed with compound K5 (Molport, SIA, Riga, Latvia) in concentrations 0.1, 0.5, 1, 5, 10, 50, 100, and 200 μM for 48 h. Cells were counted using a Trypan blue reagent and EVAplus cell counter. The EC50s were calculated by analyzing the data using GraphPad Prism 10 software.

[4] = target: T1, HSP90α; test: HSP90 N-Terminal Domain Assay Kit, fluorescence polarization competition with FITC-Geldanamycin; format: binding; parameters: purchased BPS Bioscience 50293; settings: dose-response 1 pM to 10 μM, n = 3, extrapolated with GraphPad Prism; read-out: HSP90α inhibition IC50
Description: HSP90‐directed inhibitory activity was assessed employing the HSP90 N‐Terminal Domain Assay Kit (BPS Bioscience) according to the manufacturer's instructions. The fluorescence intensity was measured with a multiplate reader (Victor Nivo‐Perkin Elmer). The IC50 was calculated by analyzing the data using GraphPad Prism 10 software.
HSP90 inhibition activity assay. […] […] […] Data are the percentage of residual enzyme activity relative to the solvent (DMSO). The IC50s were calculated by analyzing the data using GraphPad Prism 10 software.

[5] = Thermodynamic solubility, shake flask method; format: physicochemical; settings: PBS buffer; PBS pH 7.4, 24 h at 37°C
Description: as §1
Thermodynamic solubility. The shake flask method measured the thermodynamic solubility of K4 and K5 in PBS buffers at pH 7.4. A saturated solution of the compounds was prepared by incubating the 2 compounds in PBS buffer for 24 h at 37°C under agitation. At the end of the incubation, samples were centrifuged, two aliquots were diluted in acetonitrile (CAN), and each sample was then injected into LC-MS/MS (ESI interface) and quantified on a calibration curve prepared by sequential dilution in ACN. Samples were analyzed on UPLC Acquity (Waters) interfaced with API 3200 (AB Sciex) Triple Quadrupole Mass spectrometer. For K4, a Synergy Polar C18 column was used (50x2, 1mm 5µm, Phenomenex, Temp 35°C, Inj volume 10 µL, mobile phase A: water +0.1% FA, and phase B: ACN 0.1% FA, gradient: 5%-98% B, flow: 0.3 mL/min). For K5, a Gemini NX C18 column was used (50x2, 1mm 5µm, Phenomenex, Temp 35°C, Inj volume 10 µL, mobile phase A: 5mM ammonium formate +0.1% FA, and phase B: MeOH +5%, gradient: 5%-98% B, flow: 0.3 mL/min).

[6] = target: HSP90β (Homo sapiens, UniProt P08238); test: Cellular thermal shift assay (CETSA) on cellular lysates, HSP90β; settings: 46°C, compound 0.5 mM
HSP90β, sequence (P08238 whole entry): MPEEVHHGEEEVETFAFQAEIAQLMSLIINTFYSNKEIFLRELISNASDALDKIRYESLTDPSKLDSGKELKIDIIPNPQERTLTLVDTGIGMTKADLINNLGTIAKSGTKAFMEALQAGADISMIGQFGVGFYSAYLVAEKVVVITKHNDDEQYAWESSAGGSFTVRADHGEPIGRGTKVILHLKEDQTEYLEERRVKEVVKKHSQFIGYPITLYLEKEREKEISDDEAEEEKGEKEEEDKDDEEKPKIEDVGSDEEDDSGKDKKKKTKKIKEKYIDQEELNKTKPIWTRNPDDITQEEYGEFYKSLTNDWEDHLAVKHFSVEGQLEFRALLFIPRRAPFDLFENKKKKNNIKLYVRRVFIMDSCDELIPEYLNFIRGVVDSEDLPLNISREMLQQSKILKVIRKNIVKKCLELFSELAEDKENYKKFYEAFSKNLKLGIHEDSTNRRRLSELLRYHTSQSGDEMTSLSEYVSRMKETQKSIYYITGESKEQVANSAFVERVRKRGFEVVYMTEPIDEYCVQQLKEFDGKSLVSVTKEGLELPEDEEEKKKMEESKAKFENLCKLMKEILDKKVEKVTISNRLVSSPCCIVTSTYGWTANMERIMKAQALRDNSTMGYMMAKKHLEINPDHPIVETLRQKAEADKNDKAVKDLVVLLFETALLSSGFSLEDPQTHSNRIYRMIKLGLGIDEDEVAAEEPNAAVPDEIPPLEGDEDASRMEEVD
Description: as §2, §3

[7] = target: GRP94 (Homo sapiens, UniProt P14625); test: Cellular thermal shift assay (CETSA) on cellular lysates, GRP94; settings: 46°C, compound 0.5 mM
GRP94, sequence (P14625 22-803): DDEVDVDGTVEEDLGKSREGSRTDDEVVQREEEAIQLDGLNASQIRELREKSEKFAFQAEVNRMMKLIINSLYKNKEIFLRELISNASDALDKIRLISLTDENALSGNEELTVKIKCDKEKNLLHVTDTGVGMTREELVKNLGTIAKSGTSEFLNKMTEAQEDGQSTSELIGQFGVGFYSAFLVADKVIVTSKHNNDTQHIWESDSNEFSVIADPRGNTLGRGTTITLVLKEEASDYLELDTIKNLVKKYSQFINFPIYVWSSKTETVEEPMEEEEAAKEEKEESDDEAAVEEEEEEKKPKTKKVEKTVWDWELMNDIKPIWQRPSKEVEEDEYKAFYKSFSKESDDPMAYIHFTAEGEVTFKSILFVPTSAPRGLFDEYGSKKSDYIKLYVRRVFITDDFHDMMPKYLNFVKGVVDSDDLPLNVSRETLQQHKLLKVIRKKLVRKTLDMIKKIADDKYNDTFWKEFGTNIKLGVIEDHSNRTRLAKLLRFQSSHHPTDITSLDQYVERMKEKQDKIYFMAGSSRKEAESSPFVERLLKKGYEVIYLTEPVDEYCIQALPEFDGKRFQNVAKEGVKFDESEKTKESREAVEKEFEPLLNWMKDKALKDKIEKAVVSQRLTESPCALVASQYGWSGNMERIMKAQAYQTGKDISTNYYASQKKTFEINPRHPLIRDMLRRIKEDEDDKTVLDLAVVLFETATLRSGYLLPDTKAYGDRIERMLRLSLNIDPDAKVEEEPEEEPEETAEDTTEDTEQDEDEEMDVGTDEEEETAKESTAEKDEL
Description: as §2, §3

Row | Compound | metabolic stability in human microsomes [1] | interaction / stabilization of HSP90α in CETSA [2] | effect on non-senescent IMR90 cells [3] | senolytic activity on senescent IMR90 cells [3] | IC50 [4] [µM] | solubility thermodynamic at 24 h [5] [µg/mL] | stabilization of HSP90β in CETSA [6] | stabilization of GRP94 in CETSA [7]
1 | Cc1ccccc1-n1c(=O)n(Cc2ccccc2)c(=O)c2[nH]cnc21 [Compound K5, 1-benzyl-3-(2-methylphenyl)-7H-purine-2,6-dione] | stable | potent and selective interaction | robust level of safety | evident senolytic activity; also recorded: highest senolytic activity | 0.111 | ~200 | did not observe a stabilization | did not observe a stabilization
2 | CC(C)(C)S(=O)(=O)C/C(N)=N/OS(=O)(=O)c1ccc(F)cc1F [Compound K4, (Z)-N'-[(2,4-difluorobenzenesulfonyl)oxy]-2-(2-methylpropane-2-sulfonyl)ethanimidamide] | stable | potent and selective interaction | robust level of safety | evident senolytic activity; also recorded: highest senolytic activity | 0.155 | ~400 | did not observe a stabilization | did not observe a stabilization
